Test results as given in US8975241B2, “Composition for treating and preventing obesity including high water-soluble 2-hydroxypropyl-betacyclodextrin as effective component” (Song Ho Biomed Co., Ltd., priority 2009, dated 2015).

Assays:
[1] = tested on: mouse model with obesity caused by a high fat diet; test: Change in body weight by autonomically drinking in mouse model with obesity caused by high fat diet; format: in vivo
high fat diet-mouse [2] = test: Change of liver weight and body fat by oral administration in high fat diet-mouse; format: in vivo; conditions: oral for 5 days
Description: […] The mice were killed by using CO2 gas; their abdomens were cut; their subcutaneous fats, genital fats, intra-abdominal fats, and livers were isolated; then their weights were measured using a chemical balance; average weight of five animals was calculated.

Solubility in water = conditions: at 25° C.
high fat diet-mouse [3] = test: Amount of feed intake by oral administration in high fat diet-mouse; format: in vivo
Description: Male C57BL/6J mice (Five age of the week, KRIBB, Korea) were accommodated for 1 week. And then, the weights of the animals were equally divided into 5 animals as one group. While a high fat diet (60% fat kcal) was provided, sterilized distilled water and HPBCDs with 10, 20, and 40% (W/V) were orally administered at three times (Morning, Afternoon, Evening) a day for 5 days in 0.2 ml per 20 g body weight of a mouse at the same time. A change in body weight was measured to all of the animals during the test at one time per day; the fixed amount of feeds was provided at the day of measuring body weight, and then an average amount of intake per an animal (g/mouse/day) was calculated by measuring a residual amount of feeds at the next day.

[4] = tested on: mouse model with obesity caused by a high fat diet; test: Amount of feed intake by autonomically drinking in mouse model with obesity caused by high fat diet; format: in vivo; conditions: for Amount of Feed Intake: per group
Description: Male C57BL/6J mice (Five age of the week, KRIBB, Korea) were accommodated for 1 week, and then were induced with obesity by giving a high fat diet (60% fat kcal, Research Diets) for 15 days. The weights of the animals that were induced with obesity were equally divided into 3 animals as one group. And then, the solvent-control group drank sterilized distilled water, autonomically. Hydroxypropyl-β-cyclodextrin (HPBCD) was dissolved in sterilized distilled water to be 10, 15, and 20% (W/V) concentrations for drinking autonomically. A change in body weight was daily measured to all of animals during the test; the fixed amount of feeds was provided at the day of measuring body weight, and then an amount of intake per a group (g/day) was calculated by measuring a residual amount of feeds at the next day.

normal mouse (ICR) = test: Oral glucose tolerance test; format: in vivo; conditions: for Rate of Suppression (%): vs control group
From the text: An oral glucose tolerance test system is to comprehensively predict whether or not a sample has an effect on suppressing a sharp increase of blood sugar induced by intaking glucose after an oral-administration of the sample to a mouse, activities of suppressing glycolysis/glucose absorption, etc.
A normal mouse [ICR, 6W, Coretech Inc., Korea] was accommodated for 1 week, and then approximately 18˜20 g female with 7 age of the week mouse was used. 6 mice were assigned for one experimental group and starved for 16 hours to use. Hydroxypropyl-β-cyclodextrin (HPBCD) was dissolved in sterilized distilled water to be 20% (W/V) concentration, and then oral-administered in 0.2 mL per 20 g body weight of a mouse. And then, the glucose dissolved in physiological saline was oral-administered to mice in a liquid amount of 10 ml/kg to inject 2 g/kg after 15, 30, 60, and 90 minutes, respectively. The levels of blood sugars were measured just before administering glucose (0 hour), and at 15, 60, and 120 minutes after administering glucose. Blood for measuring blood sugar was collected from orbital venous of the mouse using a capillary tube. The blood sugar in the collected blood was measured using a measuring instrument, […] ALPHA (Boehringer mannheim Co.). The same amount of sterilized distilled water was administered for the control group.

[5] = 10% (w/v) in drinking water, 1 Day
[6] = 10% (w/v) in drinking water, 2 Day
[7] = 10% (w/v) in drinking water, 3 Day
[8] = 10, 15, 20% (W/V) autonomically drinking
[9] = 15% (w/v) in drinking water, 2 Day
[10] = 20% (w/v) in drinking water, 1 Day
[11] = 20% (w/v) in drinking water, 2 Day
[12] = 20% (w/v) in drinking water, 3 Day
[13] = 20% (W/V) oral (−)15 min. before glucose 2 g/kg
[14] = 20% (W/V) oral (−)30 min. before glucose 2 g/kg
[15] = 20% (W/V) oral (−)60 min. before glucose 2 g/kg
[16] = 20% (W/V) oral (−)90 min. before glucose 2 g/kg

In the case of 2-hydroxypropyl-β-cyclodextrin [HPBCD], the “Change in body weight (%)” value ([1]; 10% (w/v) in drinking water, 0 Day) is reported as 100.0 ± 0.0%, the “Change in body weight (%)” value [1, 5] is reported as 98.1 ± 0.2% and the “Change in body weight (%)” value [1, 6] is reported as 97.6 ± 0.8 %. For the same substance, the “Change in body weight (%)” value [1, 7] was 94.6 ± 0.7 %, the “body weight as compared with the distilled water-drinking control group” value [1, 8] was “decreased depending on the concentration” and the “body weight as compared with the initial body weight” value [1, 8] was “significantly decreased”. For the same substance, the “Change in body weight (%)” value ([1]; 15% (w/v) in drinking water, 0 Day) was 100.0 ± 0.0%, the “Change in body weight (%)” value [1, 9] was 94.0 ± 1.3 % and the “Change in body weight (%)” value ([1]; 20% (w/v) in drinking water, 0 Day) was 100.0 ± 0.0%. For the same substance, the “Change in body weight (%)” value [1, 10] was 100.0 ± 0.0%, the “Change in body weight (%)” value [1, 11] was 89.1 ± 6.9 % and the “Change in body weight (%)” value [1, 12] was 85.4 ± 8.1 %. The “Total Amount of Fat” value (high fat diet-mouse [2]; 10% (w/v)) was 1233.9 ± 244.8 mg, the “Weight of Genital Fat” value (high fat diet-mouse [2]; 10% (w/v)) was 473.3 ± 99.6 mg and the “Weight of Intra-abdominal Fat” value (high fat diet-mouse [2]; 10% (w/v)) was 113.0 ± 31.5 mg. The “Weight of Liver” value (high fat diet-mouse [2]; 10% (w/v)) was 1011.1 ± 33.5 mg, the “Weight of Subcutaneous Fat” value (high fat diet-mouse [2]; 10% (w/v)) was 647.6 ± 119.5 mg and the “Total Amount of Fat” value (high fat diet-mouse [2]; 15% (w/v)) was 795.8 ± 90.1 mg. The “Weight of Genital Fat” value (high fat diet-mouse [2]; 15% (w/v)) was 319.6 ± 46.5 mg, the “Weight of Liver” value (high fat diet-mouse [2]; 15% (w/v)) was 960.2 ± 44.6 mg and the “Weight of Subcutaneous Fat” value (high fat diet-mouse [2]; 15% (w/v)) was 411.3 ± 43.9 mg. For the same substance, the “Total Amount of Fat” value (high fat diet-mouse [2]; 20% (w/v)) was 666.9 ± 75.3 mg, the “Weight of Genital Fat” value (high fat diet-mouse [2]; 20% (w/v)) was 240.8 ± 45.5 mg and the “Weight of Intra-abdominal Fat” value (high fat diet-mouse [2]; 20% (w/v)) was 43.9 ± 9.3 mg. The “Weight of Liver” value (high fat diet-mouse [2]; 20% (w/v)) was 990.1 ± 35.1 mg, the “Weight of Subcutaneous Fat” value (high fat diet-mouse [2]; 20% (w/v)) was 382.1 ± 38.3 mg and the “weight of liver vs control group” value (high fat diet-mouse [2]) was “decreased depending on the concentrations”. The Solubility (Solubility in water) was > 600 mg/mL, the “Amount of Feed Intake (g/mouse/day)” value (high fat diet-mouse [3]; 10% (w/v) oral three times a day, 1 Day) was 3.0 ± 0.2 g/mouse/day and the “Amount of Feed Intake (g/mouse/day)” value (high fat diet-mouse [3]; 10% (w/v) oral three times a day, 2 Day) was 2.8 ± 0.3 g/mouse/day. For the same substance, the “Amount of Feed Intake (g/mouse/day)” value (high fat diet-mouse [3]; 10% (w/v) oral three times a day, 3 Day) was 2.9 ± 0.5 g/mouse/day, the “Amount of Feed Intake (g/mouse/day)” value (high fat diet-mouse [3]; 10% (w/v) oral three times a day, 4 Day) was 2.7 ± 0.5 g/mouse/day and the “Amount of Feed Intake (g/mouse/day)” value (high fat diet-mouse [3]; 10% (w/v) oral three times a day, 5 Day) was 2.7 ± 0.5 g/mouse/day. The “amount of dietary intake” value (high fat diet-mouse [3]; 10, 20, 40% (W/V) oral) was “temporary effect on decreasing an amount of dietary intake”, the “Amount of Feed Intake (g/mouse/day)” value (high fat diet-mouse [3]; 20% (w/v) oral three times a day, 1 Day) was 2.4 ± 0.4 g/mouse/day and the “Amount of Feed Intake (g/mouse/day)” value (high fat diet-mouse [3]; 20% (w/v) oral three times a day, 2 Day) was 2.1 ± 0.4 g/mouse/day. The “Amount of Feed Intake (g/mouse/day)” value (high fat diet-mouse [3]; 20% (w/v) oral three times a day, 3 Day) was 2.5 ± 0.4 g/mouse/day, the “Amount of Feed Intake (g/mouse/day)” value (high fat diet-mouse [3]; 20% (w/v) oral three times a day, 4 Day) was 2.6 ± 0.2 g/mouse/day and the “Amount of Feed Intake (g/mouse/day)” value (high fat diet-mouse [3]; 20% (w/v) oral three times a day, 5 Day) was 2.1 ± 0.4 g/mouse/day. The “Amount of Feed Intake (g/mouse/day)” value (high fat diet-mouse [3]; 40% (w/v) oral three times a day, 1 Day) was 1.8 ± 0.5 g/mouse/day, the “Amount of Feed Intake (g/mouse/day)” value (high fat diet-mouse [3]; 40% (w/v) oral three times a day, 2 Day) was 2.0 ± 0.5 g/mouse/day and the “Amount of Feed Intake (g/mouse/day)” value (high fat diet-mouse [3]; 40% (w/v) oral three times a day, 3 Day) was 2.7 ± 0.6 g/mouse/day. The “Amount of Feed Intake (g/mouse/day)” value (high fat diet-mouse [3]; 40% (w/v) oral three times a day, 4 Day) was 2.5 ± 0.3 g/mouse/day, the “Amount of Feed Intake (g/mouse/day)” value (high fat diet-mouse [3]; 40% (w/v) oral three times a day, 5 Day) was 2.6 ± 0.3 g/mouse/day and the “Amount of Feed Intake” value [4, 5] was 3.9 g/day. For the same substance, the “Amount of Feed Intake” value [4, 6] was 3.9 g/day, the “Amount of Feed Intake” value [4, 7] was 2.7 g/day and the “appetite / dietary intake” value [4, 8] was “effect on suppressing appetite”. For the same substance, the “Amount of Feed Intake” value ([4]; 15% (w/v) in drinking water, 1 Day) was 4.1 g/day, the “Amount of Feed Intake” value [4, 9] was 4.5 g/day and the “Amount of Feed Intake” value ([4]; 15% (w/v) in drinking water, 3 Day) was 4.0 g/day. The “Amount of Feed Intake” value [4, 10] was 4.2 g/day, the “Amount of Feed Intake” value [4, 11] was 4.2 g/day and the “Amount of Feed Intake” value [4, 12] was 2.6 g/day. For the same substance, the “Increasing Amount of Blood Sugar (15 min.~0 hour)” value (“Increasing Amount of Blood Sugar” for short) (normal mouse (ICR); [13]) was 190.0 mg/dL, the “Level of Blood Sugar Before and After Administration of D-glucose (mg/dl), 0 Hour” value (“Level … 0 Hour” for short) (normal mouse (ICR); [13]) was 74.8 mg/dL and the “Level of Blood Sugar Before and After Administration of D-glucose (mg/dl), 15 min.” value (“Level … 15 min.” for short) (normal mouse (ICR); [13]) was 264.8 mg/dL. The “Rate of Suppression (%)” value (normal mouse (ICR); [13]) was 19.7%, the “Increasing Amount of Blood Sugar” value (normal mouse (ICR); [14]) was 191.0 mg/dL and the “Level … 0 Hour” value (normal mouse (ICR); [14]) was 83.3 mg/dL. The “Level … 15 min.” value (normal mouse (ICR); [14]) was 274.3 mg/dL, the “Rate of Suppression (%)” value (normal mouse (ICR); [14]) was 19.3% and the “Increasing Amount of Blood Sugar” value (normal mouse (ICR); [15]) was 184.5 mg/dL. For the same substance, the “Level … 0 Hour” value (normal mouse (ICR); [15]) was 83.3 mg/dL, the “Level … 15 min.” value (normal mouse (ICR); [15]) was 267.8 mg/dL and the “Rate of Suppression (%)” value (normal mouse (ICR); [15]) was 22.0%. For the same substance, the “Increasing Amount of Blood Sugar” value (normal mouse (ICR); [16]) was 180.7 mg/dL, the “Level … 0 Hour” value (normal mouse (ICR); [16]) was 78.3 mg/dL and the “Level … 15 min.” value (normal mouse (ICR); [16]) was 259.0 mg/dL. The “Rate of Suppression (%)” value (normal mouse (ICR); [16]) was 23.7% and the “blood sugar caused by intaking glucose suppressed as compared with the control group” value (normal mouse (ICR); oral, all pre-treatment times) was 19˜24%.
